Source: patent US10279046B2, “Eye drop composition for treating ocular inflammatory disease and preparation method therefor” (CATHOLIC UNIVERSITY INDUSTRY-ACADEMIC COOPERATION FOUNDATION, priority 2013, dated 2019)

System: corneal damage model (alkali burn)
Assay: Corneal damage model (alkali burn) with NaOH: corneal edema and inflammatory cells (hematoxylin-eosin and F4/80 staining)
Type: in vivo, rat (Sprague Dawley)
Conditions: 0.1 mg/ml (0.01%) sulfasalazine, twice a day
Method: A white […] (Sprague Dawley, 300 g, male) was used as an animal, and a corneal damage model (alkali burn) due to a chemical drug using NaOH was used. A paper disk of 3 mm was dipped in a 0.1 N NaOH solution (50 ul), and the cornea was covered with the paper disk for 30 seconds to induce the cornea to be damaged. The inflammation reaction in the cornea was confirmed by performing hematoxylin eosin staining and immunostaining on the F4/80 antigen. The analysis of corneal edema was performed using a ratio of corneal epithelium and corneal stroma.
After the damage to the cornea, the solubilized sulfasalazine and the sulfasalazine-hyaluronic acid eye drop prepared in the Example 1 were administered twice a day, respectively. 0.1% hyaluronic acid was administered to the control group.
Three days after the damage to the cornea, the eyeball was removed and a paraffin block was prepared to make a tissue slice, and the hematoxylineosin staining and the immunostaining on the F4/80 antigen as a macrophage marker were performed.
The analysis on the inflammatory cells was performed with respect to the number of macrophages (F4/80 positive cells) present in the cornea.

`O=C(O)c1cc(/N=N/c2ccc(S(=O)(=O)Nc3ccccn3)cc2)ccc1O` [sulfasalazine solution, sulfasalazine] was tested, and the “number of macrophages (F4/80 positive cells) present in the cornea” value (after inducement of inflammation 31.5±4.9) was 21.3±5.5 and the “ratio of corneal epithelium and stroma (corneal edema)” value (three days after damage, normal 4.6±1, after inducement of inflammation 10±2.5) was 7.1±2.1.
